Tests used:
bedstraw = experiment: Test B pre/postemergence bedstraw; assay type: in vivo, Galium aparine
In short: (§1)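 Response is a visual 0-to-10 score relative to untreated plants, where 0 means no effect and 10 means complete control, taken twelve to sixteen days after application. Treatments went onto soil at planting and onto foliage of 1- to 4-leaf plants, using a surfactant-containing non-phytotoxic solvent.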

wheat = experiment: Test B pre/postemergence wheat; assay type: in vivo, Triticum aestivum
In short: as §1

rice = experiment: Test B flood test rice; assay type: in vivo, Oryza sativa
In short: (§2)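 Read-out is a visual response score from 0 (no effect) to 10 (complete control), assigned by comparison with untreated controls. Treatment was applied at the 2-leaf stage, and plants stayed in the greenhouse for twelve to sixteen days before scoring.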

duck salad = experiment: Test B flood test duck salad; assay type: in vivo, Heteranthera limosa
In short: as §2

[1] = Postemergence, Rate 250 g/ha, scale 0 to 10, 0 no effect, 10 complete control
[2] = Postemergence, Rate 1000 g/ha, scale 0 to 10 (0 no effect, 10 complete control)
[3] = Preemergence, Rate 125 g/ha, scale 0 to 10 (0 no effect, 10 complete control)
[4] = Preemergence, Rate 250 g/ha, scale of 0 to 10 where 0 is no effect and 10 is complete control
[5] = Preemergence, Rate 500 g/ha, scale 0 (no effect) to 10 (complete control)
[6] = Rate 125 g/ha, Postemergence, scale 0 to 10, 0 no effect, 10 complete control
[7] = Rate 500 g/ha, Postemergence, 0 to 10 scale (0 no effect, 10 complete control)
[8] = Rate 1000 g/ha, Preemergence, scale 0 to 10 (0 no effect, 10 complete control)
[9] = Rate 125 g/ha, Postemergence section (flood test species), scale 0 to 10, 0 no effect, 10 complete control
[10] = Rate 500 g/ha, Postemergence section of Table B, 0 to 10 scale (0 no effect, 10 complete control)
[11] = flood test, listed under Postemergence, Rate 250 g/ha, scale 0 to 10, 0 no effect, 10 complete control
[12] = Rate 250 g/ha, headed Pre-emergence (flood test species), scale 0 to 10 (0 no effect, 10 complete control)
[13] = Rate 500 g/ha, headed Pre-emergence (flood test species), scale 0 to 10 (0 no effect, 10 complete control)
[14] = Rate 1000 g/ha, Pre-emergence (as headed), scale 0 to 10
[15] = Rate 2000 g/ha, Pre-emergence (as headed), scale 0 to 10
[16] = Postemergence, Rate 62 g/ha, scale 0 to 10, 0 is no effect, 10 is complete control
[17] = Preemergence, Rate 62 g/ha, scale 0 to 10, 0 is no effect, 10 is complete control
[18] = Preemergence, Rate 31 g/ha, visual rating, scale 0 to 10 (0 no effect, 10 complete control)
[19] = Postemergence, Rate 62 g/ha, scale of 0 to 10, 0 is no effect, 10 is complete control
[20] = Postemergence, Rate 500 g/ha, scale 0 to 10, 0 is no effect, 10 is complete control
[21] = Preemergence, Rate 62 g/ha, scale 0 to 10 (0 no effect, 10 complete control)
[22] = Preemergence, Rate 125 g/ha, scale 0 to 10, 0 is no effect, 10 is complete control
[23] = Preemergence, Rate 500 g/ha, scale of 0 to 10 where 0 is no effect and 10 is complete control
[24] = Rate 250 g/ha, Postemergence, scale of 0 to 10 where 0 is no effect and 10 is complete control

Row | SMILES | Bedstraw plant response rating (bedstraw; [1]) | Plant response rating, Bedstraw (bedstraw; [3]) | Plant response rating, Bedstraw (bedstraw; [4]) | Bedstraw plant response rating (bedstraw; [5]) | Bedstraw plant response rating (bedstraw; [6]) | Bedstraw plant response rating (bedstraw; [7]) | Wheat plant response rating (wheat; [1]) | Plant response rating, Wheat (wheat; [3]) | Plant response rating, Wheat (wheat; [4]) | Wheat plant response rating (wheat; [5]) | Wheat plant response rating (wheat; [6]) | Rice plant response rating (rice; [9]) | Rice plant response rating (rice; [10]) | Rice plant response rating (rice; [11]) | Ducksalad plant response rating (duck salad; [9]) | Ducksalad plant response rating (duck salad; [10]) | Ducksalad plant response rating (duck salad; [11]) | Bedstraw plant response rating (bedstraw; [16]) | Plant response rating, Bedstraw (bedstraw; [17]) | Wheat plant response rating (wheat; [16]) | other results
1 | CCN(CC)C(=O)n1oc(=O)n(-c2c(C)cccc2C)c1=O [Compound 2] | 0 | 0 | 0 | 0 | 0 | 0 | 0 | 0 | 0 | 0 | 0 | 0 | 0 | 0 | 0 | 0 | 0 |  |  |  | Bedstraw plant response rating (bedstraw; [2]): 0; Plant response rating, Bedstraw (bedstraw; [8]): 0; Wheat plant response rating (wheat; [2]): 0; Plant response rating, Wheat (wheat; [8]): 0; Rice plant response rating (rice; [2]): 0; Ducksalad plant response rating (duck salad; [2]): 0
2 | CC(C)N(C(=O)n1oc(=O)n(-c2ccc(Cl)cc2Cl)c1=O)c1ccc(F)cc1 [Compound 7, 4-(2,4-Dichlorophenyl)-N-(4-fluorophenyl)-N-(1-methylethyl)-3,5-dioxo-1,2,4-oxadiazolidine-2-carboxamide] | 0 | 0 | 0 | 0 | 0 | 0 | 0 | 0 | 0 | 0 | 0 | 0 | 0 | 0 | 0 | 0 | 0 |  |  |  | Bedstraw plant response rating (bedstraw; [2]): 4; Plant response rating, Bedstraw (bedstraw; [8]): 0; Wheat plant response rating (wheat; [2]): 2; Plant response rating, Wheat (wheat; [8]): 0; Rice plant response rating (rice; [2]): 0; Rice plant response rating (rice; [12]): 0; Plant response rating, Rice (rice; [13]): 0; Rice plant response rating (rice; [14]): 0; Rice plant response rating (rice; [15]): 0; Ducksalad plant response rating (duck salad; [2]): 0; Ducksalad plant response rating (duck salad; [12]): 0; Plant response rating, Ducksalad (duck salad; [13]): 0; Ducksalad plant response rating (duck salad; [14]): 0; Ducksalad plant response rating (duck salad; [15]): 0
3 | CCN(CC)C(=O)n1oc(=O)n(-c2cc(Cl)cc(Cl)c2)c1=O [Compound 11] | 0 | 0 | 0 | 0 | 0 | 0 | 0 | 0 | 0 | 0 | 0 | 0 | 0 | 0 | 0 | 0 | 0 | 0 | 0 | 0 | Plant response rating, Wheat (wheat; [17]): 0; Rice plant response rating (rice; [16]): 0; Ducksalad plant response rating (duck salad; [16]): 0
4 | CC(C)N(C(=O)n1oc(=O)n(-c2ccccc2C(F)(F)F)c1=O)c1ccc(F)cc1 [Compound 15] | 0 | 0 | 0 | 7 | 0 | 4 | 0 | 0 | 0 | 0 | 0 | 0 | 0 | 0 | 0 | 0 | 0 | 0 | 0 | 0 | Plant response rating, Wheat (wheat; [17]): 0; Rice plant response rating (rice; [16]): 0; Ducksalad plant response rating (duck salad; [16]): 0
5 | CC(C)N(C(=O)n1oc(=O)n(-c2c(Cl)cccc2Cl)c1=O)c1ccc(F)cc1 [Compound 19] | 7 | 0 | 0 | 0 | 6 | 8 | 0 | 0 | 0 | 0 | 0 | 0 | 0 | 0 | 0 | 0 | 0 | 2 | 0 | 0 | Plant response rating, Wheat (wheat; [17]): 0; Rice plant response rating (rice; [16]): 0; Ducksalad plant response rating (duck salad; [16]): 0
6 | CCN(C(=O)n1oc(=O)n(-c2ccccc2OC)c1=O)C1CCCCC1 [Compound 29] | 0 | 0 | 0 |  | 0 |  | 0 | 0 | 0 |  | 0 | 0 | 0 | 0 | 0 | 0 | 0 | 0 | 0 | 0 | Bedstraw plant response rating (bedstraw; [18]): 0; Bedstraw plant response rating (bedstraw; Rate 31 g/ha, Postemergence, scale 0 to 10): 0; Wheat plant response rating (wheat; [18]): 0; Plant response rating, Wheat (wheat; [17]): 0; Rice plant response rating (rice; [16]): 0; Ducksalad plant response rating (duck salad; [16]): 0
7 | CCC=CCn1c(=O)on(C(=O)N(c2ccc(Cl)cc2)C(C)C)c1=O [Compound 552] |  |  |  |  |  |  |  |  |  |  |  |  |  |  |  |  |  |  |  |  | Bedstraw plant response rating (bedstraw; [19]): 2; Bedstraw plant response rating (bedstraw; Postemergence, Rate 125 g/ha, scale 0 to 10, 0 is no effect, 10 is complete control): 5; Plant response rating, Bedstraw (bedstraw; [20]): 10; Bedstraw plant response rating (bedstraw; [21]): 0; Bedstraw plant response rating (bedstraw; [22]): 0; Bedstraw plant response rating (0 to 10 scale) (bedstraw; Preemergence, Rate 250 g/ha): 0; Bedstraw plant response rating (bedstraw; [23]): 8; Plant response rating, Bedstraw (bedstraw; [24]): 10; Wheat plant response rating (wheat; [19]): 0; Plant response rating, Wheat (wheat; [20]): 3; Wheat plant response rating (wheat; [21]): 0; Wheat plant response rating (wheat; [22]): 0; Wheat plant response rating (0 to 10 scale) (wheat; Preemergence, Rate 250 g/ha): 0; Wheat plant response rating (wheat; [23]): 4; Plant response rating, Wheat (wheat; [24]): 0; Plant response rating, Ducksalad (0 to 10 scale, 0 is no effect, 10 is complete control) (duck salad; Rate 62 g/ha, flood test species, Pre-emergence, visual evaluation after twelve to sixteen days): 0; Ducksalad plant response rating (0 to 10 scale, 0 is no effect, 10 is complete control) (duck salad; Rate 125 g/ha, under heading Pre-emergence, flood test species, visual evaluation after twelve to sixteen days): 0; Ducksalad plant response rating (duck salad; Rate 250 g/ha, Pre-emergence (flood test species), scale 0 to 10, 0 is no effect, 10 is complete control): 0; Ducksalad plant response rating (duck salad; Rate 500 g/ha, Pre-emergence section of Table B, 0 to 10 scale (0 no effect, 10 complete control)): 0

Source: patent US6737383B1, “Herbicidal oxadiazolidines” (priority 1999, dated 2004)
